One block for each molecule: values may come before it.
Tests used:
[1] = Ex vivo biodistribution in NCI-H727 tumor-bearing mice; details: female, BALB/c nude, mouse, in vivo, 1.48 MBq, total radioactivity, Biodistribution
Protocol: (§1) Female BALB/c nude mice were obtained from Charles River Laboratories (Beijing, China). […] Approximately 5 × 10^6 cells were implanted into the right shoulder of each mouse to establish an NCI-H727 tumor model and Mc38 tumor model. Once the tumor volume reached 200–300 mm^3, the mice were used for imaging or biodistribution studies. All animal experiments were carried out in accordance with the National Institutes of Health Guidelines for the Care and Use of Laboratory Animals and were approved by the Animal Protection and Utilization Committee of the General Hospital of the PLA (Approval No.: S2023-209-1).
(§2) The NCI-H727 tumor-bearing mice were randomly assigned to four groups (with three mice in each group) and were injected with [^68Ga]Ga-TATE-46 (1.48 MBq, 100 µL). The mice were put to death at 0.5, 1, 2, and 4 h post-injection (p.i.). The tissues and organs of concern were gathered, weighed, and measured for radioactivity using a γ-counter. Additionally, [^68Ga]Ga-DOTA-TATE and [^68Ga]Ga-FAPI-46 were used as control groups in the biodistribution study of the NCI-H727 tumor model at 1 h p.i. After performing time decay correction, the radiotracer uptake in each tissue and organ was calculated as %ID/g.

[2] = Pharmacokinetics, blood time-activity curves, two-compartment model; format: in vivo, BALB/c mice
Protocol: Nine female healthy BALB/c mice were randomly divided into three groups (with three mice in each group) using a random number table. Each group was administered 100 µL of [^68Ga]Ga-TATE-46, [^68Ga]Ga-DOTA-TATE, or [^68Ga]Ga-FAPI-46 (0.37 MBq) via tail vein injection. Blood samples (5 µL × 3) were collected at 2, 5, 10, 15, 30, 60, 90, and 120 min post-injection via tail vein. The radioactivity in the blood was measured with a γ-counter and converted to blood radioactivity concentration (kBq/mL). The pharmacokinetic data (time–blood radioactivity concentration) were analyzed by using the two-compartment model in the pharmacokinetic software WinNonlin (Certara, Louis, MO, USA, 2018-06) to determine the distribution and clearance half-life parameters of the radiopharmaceuticals in the mice.

[3] = Partition coefficient (log P), n-octanol/PBS; format: physicochemical
Protocol: In a 15 mL centrifuge tube, 2.9 mL of PBS (0.1 mol/L, pH = 7.4) and 3 mL of n-octanol were added. [^68Ga]Ga-TATE-46, [^68Ga]Ga-DOTA-TATE, or [^68Ga]Ga-FAPI-46 (14.8 MBq, 100 µL) were added to each tube. The mixture was vortexed at room temperature for 2 min to ensure thorough blending, and then centrifuged at room temperature (effective centrifuge radius 12 cm, 3000 rpm) for 5 min. After allowing sufficient time for phase separation, three 500 µL samples were taken from each layer. The radioactivity of each sample was measured using a γ-counter (count per minute, CPM), and log p = log (n-octanol CPM/water CPM) was calculated. The experiment was repeated three times.

[4] = tested on: NCI-H727 tumor-bearing mice; experiment: Ex vivo biodistribution in NCI-H727 tumor-bearing mice; details: 1 h p.i., γ-counter, mean ± SD, n=3
Protocol: as §1, §2

[5] = female healthy BALB/c mice, n = 3 per group, 0.37 MBq tail vein, blood 2-120 min, γ-counter, two-compartment model (WinNonlin)

tissue uptake at 1 h ([1]; Blood): 0.42 ± 0.15 %ID/g
tissue uptake at 1 h ([1]; Brain): 0.03 ± 0.01 %ID/g
tissue uptake at 1 h ([1]; Heart): 0.23 ± 0.09 %ID/g
tissue uptake at 1 h ([1]; Intestine): 1.48 ± 0.11 %ID/g
tissue uptake at 1 h ([1]; Kidney): 9.18 ± 3.65 %ID/g
tissue uptake at 1 h ([1]; Liver): 1.35 ± 0.28 %ID/g
tissue uptake at 1 h ([1]; Lung): 5.22 ± 0.82 %ID/g
tissue uptake at 1 h ([1]; Spleen): 1.22 ± 0.11 %ID/g
tissue uptake at 1 h ([1]; Stomach): 7.98 ± 0.89 %ID/g
tissue uptake at 1 h ([1]; Tumor (tumor uptake)): 1.57 ± 0.17 %ID/g
distribution half-life ([2]; mouse, in vivo): 1.38 min
elimination half-life ([2]; mouse, in vivo): 19.50 min
logD ([3]; pH 7.4): -3.02 ± 0.08
SMILES: C[C@@H](O)[C@H](NC(=O)[C@@H]1CSSC[C@H](NC(=O)[C@@H](Cc2ccccc2)NC(=O)CN2CCN(CC(=O)O)CCN(CC(=O)O)CCN(CC(=O)O)CC2)C(=O)N[C@@H](Cc2ccc(O)cc2)C(=O)N[C@H](Cc2c[nH]c3ccccc23)C(=O)N[C@@H](CCCCN)C(=O)N[C@@H]([C@@H](C)O)C(=O)N1)C(=O)O [[^68Ga]Ga-DOTA-TATE, metal not drawn, reference compound]

SMILES: CN(CCCN1CCN(C(=O)CN2CCN(CC(=O)[O-])CCN(CC(=O)[O-])CCN(CC(=O)[O-])CC2)CC1)c1ccc2nccc(C(=O)NCC(=O)N3CC(F)(F)C[C@H]3C#N)c2c1.[68Ga+3] [[^68Ga]Ga-FAPI-46, reference compound]
Biodistribution, Tumor (tumor uptake) ([4]; NCI-H727 tumor): 1.07 ± 0.01 %ID/g
Biodistribution, Blood ([4]; NCI-H727 tumor-bearing mice): 1.05± 0.05 %ID/g
Biodistribution, Bone ([4]; NCI-H727 tumor-bearing mice): 0.51± 0.05 %ID/g
Biodistribution, Brain ([4]; NCI-H727 tumor-bearing mice): 0.05± 0.01 %ID/g
Biodistribution, Heart ([4]; NCI-H727 tumor-bearing mice): 0.39± 0.16 %ID/g
Biodistribution, Intestine ([4]; NCI-H727 tumor-bearing mice): 0.38± 0.01 %ID/g
Biodistribution, Kidney ([4]; NCI-H727 tumor-bearing mice): 2.25± 0.12 %ID/g
Biodistribution, Liver ([4]; NCI-H727 tumor-bearing mice): 2.56± 0.95 %ID/g
Biodistribution, Lung ([4]; NCI-H727 tumor-bearing mice): 3.17± 0.79 %ID/g
Biodistribution, Muscle ([4]; NCI-H727 tumor-bearing mice): 0.18± 0.02 %ID/g
Biodistribution, Spleen ([4]; NCI-H727 tumor-bearing mice): 3.75± 0.75 %ID/g
Biodistribution, Stomach ([4]; NCI-H727 tumor-bearing mice): 0.38± 0.01 %ID/g
distribution half-life [2, 5]: 0.64 min
elimination half-life [2, 5]: 21.77 min
Log p ([3]; shake-flask n-octanol/PBS (0.1 mol/L, pH 7.4), 14.8 MBq in 100 µL, vortexed 2 min at room temperature, centrifuged 3000 rpm 5 min, γ-counter CPM, mean ± SD, repeated three times): −3.05 ± 0.04

From paper PMC11677724, “Preclinical Study of a Dual-Target Molecular Probe Labeled with ^68Ga Targeting SSTR2 and FAP” (Pharmaceuticals, 2024)
